According to patent US20050130134A1, “Means and methods for monitoring non-nucleoside reverse transcriptase inhibitor antiretroviral therapy and guiding therapeutic decisions in the treatment HIV-AIDS” (ViroLogic, Inc., priority 2000, published 2005):

Key:
[1] = system: RTV-268 patient virus (RT P236L with M41L, D67N, M184V, L210W, T215Y, K219Q); test: Phenotypic susceptibility assay, RTV-268 (patient 97-268); assay type: cell-based, HIV-1; details: RTV-268 patient virus compared to reference virus
Method: Resistance tests were carried out with resistance test vectors using two host cell types. Resistance test vector viral particles were produced by a first host cell (the resistance test vector host cell) that was prepared by transfecting a packaging host cell with the resistance test vector and the packaging expression vector. The resistance test vector viral particles were then used to infect a second host cell (the target host cell) in which the expression of the indicator gene is measured.
The resistance test vectors containing a functional luciferase gene cassette were constructed and host cells were transfected with the resistance test vector DNA. The resistant test vectors contained patient-derived reverse transcriptase and protease sequences that were either susceptible or resistant to the antiretroviral agents, such as nucleoside reverse transcriptase inhibitors, non-nucleoside reverse transcriptase inhibitors and protease inhibitors. The resistance test vector viral particles produced by transfecting the resistance test vector DNA into host cells, either in the presence or absence of protease inhibitors, were used to infect target host cells grown either in the absence of NRTI or NNRTI or in the presence of increasing concentrations of the drug. The amount of luciferase activity produced in infected target host cells in the presence of drug was compared to the amount of luciferase produced in infected target host cells in the absence of drug. Drug resistance was measured as the amount of drug required to inhibit by 50% the luciferase activity detected in the absence of drug (inhibitory concentration 50%, IC50). The IC50 values were determined by plotting percent drug inhibition vs. log10 drug concentration.
Host cells were seeded in 10-cm-diameter dishes and were transfected several days after plating with resistance test vector plasmid DNA and the envelope expression vector. Transfections were performed using a calcium-phosphate precipitation procedure. The cell culture media containing the DNA precipitate was replaced with fresh medium, from one to 24 hours, after transfection. Cell culture media containing resistance test vector viral particles was harvested one to four days after transfection and was passed through a […] filter before being stored at −80° C. HIV capsid protein (p24) levels in the harvested cell culture media were determined by an EIA method as described by the manufacturer (SIAC; Frederick, Md.). Before infection, target cells (293 and 293/T) were plated in cell culture media. Control infections were performed using cell culture media from mock transfections (no DNA) or transfections containing the resistance test vector plasmid DNA without the envelope expression plasmid. One to three or more days after infection the media was removed and cell lysis buffer (Promega) was added to each well. […] The inhibitory effect of the drug was determined using the following equation: % luciferase inhibition=1-(RLUluc[drug]÷RLUluc)×100 where RLUluc [drug] is the relative light unit of luciferase activity in infected cells in the presence of drug and RLUluc is the Relative Light Unit of luciferase activity in infected cells in the absence of drug. IC50 values were obtained from the sigmoidal curves that were generated from the data by plotting the percent inhibition of luciferase activity vs. the log10 drug concentration.
A resistance test vector was constructed as described in Example 1 from a patient sample designated 97-268. […] Isolation of viral RNA and RT/PCR was used to generate a patient derived segment that comprised viral sequences coding for all of PR and amino acids 1-313 of RT. The patient derived segment was inserted into a indicator gene viral vector to generate a resistance test vector designated RTV-268.

[2] = system: Tyr181Cys (Y181C) mutation of HIV RT; details: cited from earlier work
[3] = system: T66I integrase site-directed mutant; test: Phenotypic susceptibility assay, integrase T66I mutated resistance test vector; assay type: cell-based, HIV; details: T66I integrase mutant, FIG. 10
Method: Transfections were performed using a calcium-phosphate precipitation procedure. […] Cell lysates were assayed for luciferase activity (FIG. 3). […] The drug inhibition curves are shown in (FIG. 3).
A resistance test vector containing the threonine to isoleucine mutation at position 66 of the integrase protein (T66I) was constructed and tested using the phenotypic assay described earlier.

| Compound | change in susceptibility / resistance [1] | further results |
| --- | --- | --- |
| Nc1ccn([C@@H]2CS[C@H](CO)O2)c(=O)n1 [3TC] | significant resistance | – |
| Cc1cn([C@H]2C[C@H](N=[N+]=[N-])[C@@H](CO)O2)c(=O)[nH]c1=O [AZT] | significant resistance | – |
| CCc1cc(CCc2nc3ccccc3o2)c(=O)[nH]c1C [L-696,229] | – | change in susceptibility [2]: reduced susceptibility |
| CCc1cc(NCc2nc3c(Cl)ccc(Cl)c3o2)c(O)nc1C [L-697,661] | – | change in susceptibility [2]: reduced susceptibility |
| O=C(O)C(=O)CC(=O)c1cccn1Cc1ccc(F)cc1 [L-731,988] | – | reduction in susceptibility compared to wild type control RTV [3]: 4.7 fold |
| Cc1cn([C@H]2C=C[C@@H](CO)O2)c(=O)[nH]c1=O [d4T] | slight shifts in susceptibility | – |
| Nc1ccn([C@H]2CC[C@@H](CO)O2)c(=O)n1 [ddC] | slight shifts in susceptibility | – |
| O=c1[nH]cnc2c1ncn2[C@H]1CC[C@@H](CO)O1 [ddI] | slight shifts in susceptibility | – |
